# Test results as given in patent US5854010A, “Bioassay for detecting 2,3,7,8-tetrachlorodibenzo-para-dioxin and TCDD-like compounds and novel recombinant cell line useful therefor” (priority 1997, dated 1998).
# Key:
# [1] = tested on: Rat H4IIE cells, CYP1A1/EROD; conditions: Table 3 comparison, Kennedy et al., cited from earlier work
# G16L1.1c8 cells = test: TCDD-inducible luciferase activity, stably transfected clonal cell line; assay type: cell-based, guinea pig; conditions: 24 h
# Method: (§1) Using the stabilized luciferase assay system (purchased from Promega), luciferase activity in an aliquot of the cleared lysed cell supernatant (20 μl) was determined by mixing it with 100 µl of luciferase assay reagent (purchased from Promega) and measuring the resulting luminescence in a Turner Luminometer or Dynatech ML3000 microplate luminometer (light output was integrated over 1 minute after a delay time of 30 seconds).
# (§2) Using a microplate adaptation of the method reported by Bradford in "A Rapid Sensitive Method for the Quantitation of Microgram Quantities of Protein Utilizing the Principle of Protein-Dye Binding", Anal. Biochem., […], pp. 248-254 (1976), luciferase activity was standardized to the protein concentration of the supernatant (with bovine serum albumin as the protein standard). Because of instrument differences in luminescence measurement and data output, luciferase activity was determined as relative light units (RLU) per microgram of protein, which was converted to milligram of protein as reported in the Tables below. […]
# (§3) More particularly, isolated clones were grown until confluent, and then incubated in the absence or presence of TCDD (1 nM solubilized in DMSO) for 24 hours. After the incubation, luciferase activity was determined as described above.
# H1L1.1 cells [2] = test: Time course of luciferase induction by TCDD (FIG. 2); assay type: cell-based, mouse; conditions: 1 nM TCDD in DMSO
# Method: Specifically, with respect to the graph of FIG. 2, the time course of luciferase induction by TCDD was examined in order to determine the optimal time period for measurement of luciferase activity in the H1L1.1 cells. In these experiments, the cells were treated with 1 nM of TCDD solubilized in DMSO or with only DMSO. The luciferase activity was determined as described above at various times up to 32 hours post exposure. Values represent the mean ± the standard evaluation of at least triplicate determinations.
# HG2L1.1c3 cells = test: TCDD-inducible luciferase activity, stably transfected clonal cell line; assay type: cell-based, human; conditions: 24 h
# Method: as §1, §2, §3
# mouse H1L1.1 cells [3] = test: Luciferase induction by TCDD in DMSO or serum, 96-well, 4 h; detection limits (FIG. 8); assay type: cell-based
# Method: Specifically, since it is desired to utilize the present bioassay system directly to detect PAHs in samples without the need for solvent extraction and concentration, the dose-dependence of luciferase induction in cells incubated with increasing concentrations of TCDD in serum versus that observed with increasing concentrations of TCDD in DMSO was examined. In other words, the present bioassay system should be advantageously employed directly with a sample of serum from an animal or human, where the sample may contain TCDD or other PAHs and the serum is the solvent, whereby solvent extraction of the sample with DMSO as the solvent is unnecessary.
# The cells were incubated with the respective increasing concentrations of TCDD for 4 hours and luciferase activity of cell lysates determined as follows. […]
# After incubation for an additional 15 minutes, luciferase activity in the lysed cells was determined. Luciferase activity was sensitively measured using its bioluminescent substrate, luciferin in a Dynatech ML3000 microplate luminometer. In these experiments, cells either kept intact or lysed using luciferase lysis buffer (purchased from Promega) and luciferase activity in an aliquot of the lysate was determined by automatic injection of assay reagent and measurement of the resulting bioluminescence.
# mouse H1L1.1 cells [4] = test: Antagonism of TCDD luciferase induction by 2,2',5,5'-TCB (FIG. 7); assay type: cell-based; conditions: TCDD 5 nM, 24 h
# Method: (§4) The bar graph of FIG. 7 illustrates that 2,2',5,5'-TCB antagonizes induction of luciferase activity by TCDD in a species-specific manner, and thus, 2,2',5,5'-TCB is not a TCDD-like compound as defined herein. In particular, six-well plates containing the indicated cell lines were incubated with DMSO (control), with TCDD (5 nM), with 2,2',5,5'-TCB (25 μM), or with both TCDD (5 nM) and 2,2',5,5'-TCB (25 μM) for 24 hours. Luciferase activity in cell lysates was determined as described above. Values represent the mean ± the standard evaluation of at least triplicate determinations.
# [5] = tested on: guinea pig G16L1.1c8 cells; test: as above; assay type: cell-based; conditions: TCDD 5 nM, 24 h
# Method: as §4
# rat H4L1.1c4 cells = test: as above; assay type: cell-based; conditions: TCDD 5 nM, 24 h
# Method: as §4
# human HG2L1.1c3 cells = test: as above; assay type: cell-based; conditions: TCDD 5 nM, 24 h
# Method: as §4
# H4L1.1c4 cells = test: TCDD-inducible luciferase activity, stably transfected clonal cell line; assay type: cell-based, rat; conditions: 24 h
# Method: as §1, §2, §3
# MLEL1.1c1 cells = test: as above; assay type: cell-based, mouse; conditions: 24 h
# Method: as §1
# (§5) Using a microplate adaptation of the method reported by Bradford in "A Rapid Sensitive Method for the Quantitation of Microgram Quantities of Protein Utilizing the Principle of Protein-Dye Binding", Anal. Biochem., […], pp. 248-254 (1976), luciferase activity was standardized to the protein concentration of the supernatant (with bovine serum albumin as the protein standard). Because of instrument differences in luminescence measurement and data output, luciferase activity was determined as relative light units (RLU) per microgram of protein, which was converted to milligram of protein as reported in the Tables below.
# (§6) Cells from each of these five stable cell lines were cotransfected with the vectors, pGudLuc1.1 and pSV2neo (15 μg of each). Following a 24 hour incubation, the cotransfected cells were split 1 to 10 and replated into a selective medium containing the antibiotic, G418. After 2-3 weeks of growth, individual cell colonies were identified and isolated. Although numerous inducible cell clones were isolated, many contained high constitutive luciferase activity, possibly due to integration of the plasmid (or a truncated form of the plasmid) into a genomic site which allows the promoter to be continually active. […] The clones with the greatest ratio of inducible to constitutive luciferase activity were selected for further characterization.
# as §3
# H1L1.1 cells [6] = test: as above; assay type: cell-based, mouse; conditions: 24 h
# Method: as §1, §5, §6, §3
# [7] = TCDD 1 nM, mean ± SD of triplicate assays
# [8] = Mus musculus, TCDD 1 nM vs DMSO
smiles,measurement,setting,value
"Clc1cc2c(cc1Cl)Oc1cc(Cl)c(Cl)cc1O2 [TCDD, 2,3,7,8-tetrachlorodibenzo-para-dioxin]",MDL (minimal detection level),[1],10 pM
same,EC50,[1]; read-out: ED50 (the source's name),0.1 nM
same,fold induction,"G16L1.1c8 cells; Cavia porcellus, TCDD 1 nM vs DMSO",25
same,"Luciferase activity, TCDD in DMSO",G16L1.1c8 cells; [7],0.76 ± 0.03 RLU/mg protein
same,Time at which TCDD-inducible luciferase activity was detectable,H1L1.1 cells [2],2 h
same,Time by which luciferase activity decreased to a stable activity,H1L1.1 cells [2],≤ 12 h
same,Time of peak TCDD-inducible luciferase activity,H1L1.1 cells [2],about 4 hours
same,fold induction,"HG2L1.1c3 cells; Homo sapiens, TCDD 1 nM vs DMSO",29
same,"Luciferase activity, TCDD in DMSO",HG2L1.1c3 cells; [7],25.04 ± 1.88 RLU/mg protein
same,"Relative potency (ED50) for luciferase induction, TCDD-serum versus TCDD-DMSO",mouse H1L1.1 cells [3],significantly lower for the TCDD-serum sample than for the TCDD-DMSO sample
same,Induction of luciferase by TCDD-containing serum,mouse H1L1.1 cells [3]; TCDD in serum,dose-dependent manner
same,Luciferase induction by TCDD alone,mouse H1L1.1 cells [4],induced luciferase activity
same,Luciferase induction by TCDD alone,[5],induced luciferase activity
same,Luciferase induction by TCDD alone,rat H4L1.1c4 cells,induced luciferase activity
same,Luciferase induction by TCDD alone,human HG2L1.1c3 cells,induced luciferase activity
same,fold induction,"H4L1.1c4 cells; Rattus norvegicus, TCDD 1 nM vs DMSO",25
same,"Luciferase activity, TCDD in DMSO",H4L1.1c4 cells; [7],0.49 ± 0.03 RLU/mg protein
same,fold induction,MLEL1.1c1 cells; [8],14
same,"Luciferase activity, TCDD in DMSO",MLEL1.1c1 cells; [7],0.29 ± 0.05 RLU/mg protein
same,fold induction,H1L1.1 cells [6]; [8],74
same,"Luciferase activity, TCDD in DMSO",H1L1.1 cells [6]; [7],5.92 ± 0.70 RLU/mg protein
